# Source: patent US6294547A, “Naphthyridine deratives or salts thereof” (Nippon Kayaku Kabushiki Kaisha, priority 1997, dated 2001)
# Where a name gives a salt, the structure may show the parent alone.
# Experiments:
# NK-1 receptors = target: T1, NK-1 receptors (Cavia porcellus, UniProt P30547); assay: Antagonism for NK-1 receptor (methylsubstance P induced contraction of isolated ileum); format: cell-based, Hartley strain male guinea pigs; settings: guinea pig ileum; methylsubstance P 1×10^-9 M; 35 min incubation; read-out: IC50 of a drug on methylsubstance P induced contraction
# T1 construct: the ileums were isolated; from tissue; host or cells: isolated ileum of male Hartley guinea pigs
# Method: Hartley strain male guinea pigs were killed by a blow on the head and blood-letting, and the ileums were isolated. A specimen of about 3 cm in length was prepared and then suspended at a tension of 0.5 gw in a 15 magunus bath with an internal volume of 15 ml containing Krebs-Henseleit solution of 37° C. while introducing a mixed gas of 95% O2 +5% CO2 into the bath. As the Krebs-Henseleit solution, that containing atropine (1×10^-6 M) and indomethacin (5×10^-6 M) was used for preventing the participation of intrinsic acetylcholine and prostaglandins. Methylsubstance P (1×10^-9 M), a specific stimulating agent for NK-1 receptors were repeatedly allowed to act on the specimen at intervals of 40 minutes. After the percentage of contraction due to methylsubstance P became constant, a drug was added to the solution to each of various concentrations, followed by incubation for 35 minutes, and methyl-substance P was allowed to act on the specimen again. The rate of inhibition by the drug was determined relative to the percentage of contraction immediately before the addition of the drug, and the 50% inhibitory concentration (IC50) of the drug was determined by means of a regression line.
# NK-2 receptors = target: T2, NK-2 receptors (Rattus norvegicus, UniProt P16610); assay: Binding to NK-2 receptors (inhibition of radioactive 125I-neurokinin A binding); format: Fischer strain male rats (duodenum membranes); settings: rat duodenum membrane; 125I-neurokinin A 1×10^-9 M; 90 min, room temperature; read-out: IC50 of drugs in binding of radioactive neurokinin A
# T2 construct: Duodenums isolated from Fischer strain male rats were homogenized; from tissue; host or cells: duodenum membranes of male Fischer rats
# T2 sequence (P16610 1-390): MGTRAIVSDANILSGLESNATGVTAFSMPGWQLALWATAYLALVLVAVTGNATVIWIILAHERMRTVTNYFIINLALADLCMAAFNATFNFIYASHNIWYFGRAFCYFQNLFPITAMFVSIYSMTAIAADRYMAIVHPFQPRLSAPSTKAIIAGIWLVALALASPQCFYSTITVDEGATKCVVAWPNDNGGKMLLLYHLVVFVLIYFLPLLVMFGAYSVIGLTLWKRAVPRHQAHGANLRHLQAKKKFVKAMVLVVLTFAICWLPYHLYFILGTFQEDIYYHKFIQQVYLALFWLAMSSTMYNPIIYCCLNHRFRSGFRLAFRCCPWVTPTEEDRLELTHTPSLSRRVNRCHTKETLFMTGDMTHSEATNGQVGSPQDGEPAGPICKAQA
# Method: Duodenums isolated from Fischer strain male rats were homogenized in 50 mM Tris-hydrochloric acid buffer (pH 7.4) containing saccharose (100 mg/ml) and ethylenediaminetetraacetic acid (1 mM), and the resulting homogenate was centrifuged at 48,000 g and 4° C. for 20 minutes. The pellet thus obtained was washed three times with 10 times as much 50 mM Tris-hydrochloric acid buffer (pH 7.4) containing KCl (300 mM) and ethylenediaminetetraacetic acid (10 mM) as the pellet by volume, and the resulting membrane preparation was suspended in 10 times as much 50 mM Tris-hydrochloric acid buffer (pH 7.4) as the membrane preparation by volume and stored at -80° C. until use. The membrane preparation (20 mg/ml) was incubated together with a radioactive ligand ^125 I-neurokinin A (1×10^-9 M) at room temperature for 90 minutes in the presence of each drug or a solvent therefor in 50 mM Tris-hydrochloricacid buffer (pH 7.4) containing bovine serum albumin (10 mg/ml), bacitracin (40 μg/ml), leupeptin (4 μg/ml), chymostatin (50 μg/ml), antipain (1×10^-4 M) and MnCl2 (1 mM). […] Then, radioactivity in the filter was measured with a gamma counter. The 50% inhibitory concentration (IC50) of the drug was determined by means of a regression line by considering radioactivity in the presence of Nle10 neurokinin A (4-10) (3×10^-6 M) to be due to nonspecific binding, and measuring the rate of inhibition of specific binding by the drug by carrying out a control experiment using the solvent alone.
# T1 sequence (P30547 whole entry): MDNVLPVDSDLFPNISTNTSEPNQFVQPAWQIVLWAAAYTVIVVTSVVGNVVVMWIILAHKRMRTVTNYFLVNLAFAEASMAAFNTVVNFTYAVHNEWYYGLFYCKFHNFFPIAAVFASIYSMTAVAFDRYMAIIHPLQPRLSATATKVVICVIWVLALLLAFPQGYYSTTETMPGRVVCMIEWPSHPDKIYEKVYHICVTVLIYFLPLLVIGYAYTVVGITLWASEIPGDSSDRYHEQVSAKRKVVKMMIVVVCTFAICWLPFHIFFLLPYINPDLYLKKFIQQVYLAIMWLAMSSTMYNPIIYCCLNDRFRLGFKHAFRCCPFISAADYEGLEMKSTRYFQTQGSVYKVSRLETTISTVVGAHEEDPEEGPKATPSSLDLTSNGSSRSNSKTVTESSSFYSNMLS
compound,measurement,setting,value
"CN(CC(CCN1CCc2nc3c(cc2C1)CCCC3)c1ccc(Cl)c(Cl)c1)C(=O)c1ccccc1 (single isomer, unassigned) [Example 25, 2-[(-)-4-(N-benzoyl-N-methyl)amino-3-(3,4-dichlorophenylbutyll-1,2,3,4,6,7,8,9-octahydro-benzo[b][1,6]naphthyridine fumarate]",IC50,NK-1 receptors,0.47 µM
same,IC50,NK-2 receptors,0.056 µM
